This is an account of results in publication PMC6149664, “Synthesis and In Vitro Antimycobacterial Activity of Novel N-Arylpiperazines Containing an Ethane-1,2-diyl Connecting Chain” (Molecules : A Journal of Synthetic Chemistry and Natural …, 2017).

Series [1] has as its system M. kansasii CNCTC My 235/80 (identical with ATCC 12478). Kind of series: In vitro antimycobacterial MIC, dilution-micromethod in Šula semisynthetic medium. The format is cell-based, Mycobacterium kansasii. The conditions noted are these: Mycobacterium kansasii, read-out: MIC, MK My 235/80.
Series [2] has as its system M. avium intracellulare ATCC 13950. Kind of series: In vitro antimycobacterial MIC (IC90), alamarBlue 96-well assay in Middlebrook broth. The format is cell-based, Mycobacterium avium intracellulare. The conditions noted are these: Mycobacterium avium, ATCC13950, 168 h, 7 days incubation, read-out: MIC, MAI ATCC 13950. On the technique in general: Resazurin is reduced to fluorescent resorufin, in cell work by metabolically active cells.

In series [3] the test system is M. kansasii 6 509/96 clinical isolate. Kind of series: In vitro antimycobacterial MIC, dilution-micromethod in Šula semisynthetic medium. The class given is cell-based. The conditions noted are these: Mycobacterium kansasii, read-out: MIC, MK 6 509/96.
Series [4] is described as follows: UV/Vis spectra of methanolic solutions (log ε). The settings on record: methanolic solution c = 3.0 × 10^−5 M; for log ε2(Ch-T): charge-transfer maximum λ2(Ch-T) = 238–240 nm; for log ε1: λ1 = 208–210 nm; for log ε3: λ3 = 274–276 nm. The class given is physicochemical. The text has this: Electronic properties of the inspected compounds 8a–h (Table 3) were characterized by logarithms of molar absorption coefficients (log ε) of their methanolic solutions (c = 3.0 × 10^−5 M) investigated in the UV/Vis region of the spectrum.
The UV/Vis spectra of methanolic solutions of the analyzed compounds 8a–h (c = 3.0 × 10^−5 M) were estimated on the 8452A Diode Array spectrophotometer HP-8452A (Hewlett Packard, Palo Alto, CA, USA). Methanol for UV-spectroscopy (Merck) was used for the preparation of these solutions.
Results of the UV/Vis analyses were collected and stored digitally using the ChemStation controller software (Agilent Technologies, Waldbronn, Germany). The HP-8452A apparatus measured a complete range of a spectrum from 190 nm to 820 nm.
The log ε values characterizing methanolic solutions of the analyzed compounds 8a–h (c = 3.0 × 10^−5 M) were estimated at λ1 = 208–210 nm, λ2(Ch-T) = 238–240 nm and λ3 = 274–276 nm (Table 3), respectively, in a near ultraviolet (quarz) region of the electromagnetic spectrum between 200 and 400 nm. The log ε values for the observed absorption maxima were calculated according to the Lambert-Beer´s law discussed in [47], for example, and expressed by Equation (8):A = ε × c × l(8) where the A parameter represented the absorbance of a solution, the descriptor ε was a molar absorption coefficient (in the L/mol/cm units) and l was the path length (in the cm units).

For a further series, the system named is M. kansasii CIT11/06. Kind of series: In vitro antimycobacterial MIC (IC90), alamarBlue 96-well assay in Middlebrook broth. The conditions noted are these: Mycobacterium kansasii, CIT11/06, 168 h, 7 days incubation, read-out: MIC, MK CIT11/06. The class given is cell-based, Mycobacterium kansasii.
For series [5], the system named is M. tuberculosis CNCTC My 331/88 (identical with H37Rv and ATCC 2794). Kind of series: In vitro antimycobacterial MIC, dilution-micromethod in Šula semisynthetic medium. The format is cell-based. The conditions noted are these: Mycobacterium tuberculosis.
Series [6] relates to M. avium CNCTC My 330/80 (identical with ATCC 25291). Described as above. The format is cell-based. The conditions noted are these: Mycobacterium avium.
The format of series [7] is physicochemical. Further details: key to RM (RP-TLC): RM = log(1/Rf - 1), from Rf in HCl/acetone mobile phase. How it is done:
In the RP-TLC, silica gel plates impregnated by a hand with a variously concentrated silicone oil in heptane (a strong hydrophobic agent) were used as a non-polar stationary phase. Optimal differences in RM values within both homological groups 8a–d and 8e–h were observed if 1% silicone oil in heptane was chosen (Tables 1 and S1 in Supplementary Materials).
The RM values were calculated according to Equation (5) from the Rf parameters observed in a SM mobile phase: hydrochloric acid (c = 1.0 M)/acetone (4:1, v/v):RM = log (1/Rf – 1)(5)
For the experiments, aluminium sheets pre-coated with silica gel 60 F254 (0.25 mm thickness; Merck) were impregnated by a variously concentrated silicone oil in heptane, which ranged from 1% to 5%. The plates were separately spotted with 2 µL of methanolic solutions of each compound (c = 1 mg/mL), starting points were 1 cm from a bottom edge of these plates. The chromatographic plates were developed in glass developing chambers saturated for 30 min by the SM mobile phase. Development was carried out upon 15 cm from a starting line by an ascending technique. After being developed, the plates were dried at room temperature. Detection of zones was performed under iodine vapours/UV light at λ = 254 nm. Each experiment was run in triplicate at 21 °C, the RM values of analytes were calculated separately for each run.
Optimal differences in RM values within both homological groups 8a–d and 8e–h were observed if 1% silicone oil in heptane was chosen. The Rfs were found in a range from 0.19 (8h) to 0.78 (8a; Table 1). All the calculated average RM values were summarized in Table S1 (Supplementary Materials).

Series [8] relates to M. avium subsp. paratuberculosis CIT03. Put plainly: microbe, parasite or virus in culture. The class given is cell-based. The settings on record: Mycobacterium avium, 168 h; 7 days incubation, alamarBlue; MIC = IC90; read-out: MIC, MAP CIT03.
For series [9], the system named is M. avium hominissuis CIT10/08. Put plainly: In vitro antimycobacterial MIC (IC90), alamarBlue 96-well assay in Middlebrook broth. The format is cell-based, Mycobacterium avium hominissuis. The settings on record: Mycobacterium avium, 168 h, 7 days incubation, read-out: MIC, MAH CIT10/08.
[10] abbreviates: ATCC12478, 168 h, 7 d cultivation.
The mark [11] stands for this setting: ATCC12478, 336 h, 14 d cultivation.
Where [12] appears, read: ATCC12478, 504 h, 21 d cultivation.
Where [13] appears, read: 336 h, 14-d/21-d cultivation, read-out: MIC against M. tuberculosis CNCTC My 331/88.
Setting [14] is: 336 h, 14 d cultivation, read-out: MIC, MT My 331/88.
Where [15] appears, read: 504 h, 21 d cultivation, read-out: MIC, MT My 331/88.
Where [16] appears, read: ATCC25291, 336 h, 14-d/21-d, read-out: MIC against M. avium CNCTC My 330/80.
[17] abbreviates: ATCC25291, 336 h, 14 d cultivation, read-out: MIC, MA My 330/88.
The mark [18] stands for this setting: ATCC25291, 504 h, 21 d cultivation, read-out: MIC, MA My 330/88.
[19] abbreviates: silica gel plates impregnated with 3% silicone oil in heptane.
Setting [20] is: silica gel plates impregnated with 5% silicone oil in heptane.

Like-named read-outs stand apart in the source and are kept apart here.

On to `COC(=O)Nc1cccc(C(O)CN2CCN(c3ccccc3F)CC2)c1.Cl` (stereo not shown) [8a, 1-(2-Hydroxy-2-{3-[(methoxycarbonyl)amino]phenyl}ethyl)-4-(2-fluorophenyl)piperazin-1-ium chloride], for which the MIC was 125 µM in [1] (setting [10]); 500 µM in series [1] (setting [11]); 1000 µM in series [1] (setting [12]); greater than 610 µM in series [2]; 125 µM in series [3] (168 h, 7 d cultivation); 500 µM in series [3] (336 h, 14 d cultivation). Also, the MIC in [3] (504 h, 21 d cultivation) is 500 µM; in the series on M. kansasii CIT11/06, greater than 610 µM; in [5] (setting [13]), 250 µM; in series [5] (setting [14]) it was 250 µM; in [5] (setting [15]) it was 250 µM; in [6] (setting [16]), 500 µM. Moreover, the MIC in series [6] (setting [17]) is 500 µM; in series [6] (setting [18]) it was 500 µM; in series [8] it was greater than 610 µM; in series [9], greater than 610 µM. Also, in series [4], the “log ε2(Ch-T)” value was determined as 4.30. For the same compound, the “log ε1” value in series [4] worked out at 4.30. In addition, in series [4], the “log ε3” value was 3.45. Besides, the results for the “RM (RP-TLC)” value in series [7] (setting [19]) and in series [7] (setting [20]) were -0.16 and -0.05, respectively.

Regarding `CCOC(=O)Nc1cccc(C(O)CN2CCN(c3ccccc3F)CC2)c1.Cl` (stereo not shown) [8b, 1-(2-{3-[(Ethoxycarbonyl)amino]phenyl}-2-hydroxyethyl)-4-(2-fluorophenyl)piperazin-1-ium chloride], the MIC in [1] (setting [10]) was 62.5 µM; in [1] (setting [11]), 250 µM; in series [1] (setting [12]), 250 µM; in series [2] it was greater than 590 µM; in series [3] (168 h, 7 d cultivation) it was 62.5 µM; in series [3] (336 h, 14 d cultivation), 250 µM. Besides, the MIC in [3] (504 h, 21 d cultivation) worked out at 250 µM; with M. kansasii CIT11/06 it was 295 µM; in [5] (setting [14]), 125 µM; in series [5] (setting [15]) it was 125 µM; in [6] (setting [17]), 250 µM; in [6] (setting [18]), 250 µM. Moreover, the MIC in [8] and in series [9] was greater than 590 µM in each case. In addition, the “log ε2(Ch-T)” value in [4] was found to be 4.33. In addition, the “log ε1” value in series [4] came to 4.31. Besides, the “log ε3” value in series [4] amounted to 3.40. Besides, the “RM (RP-TLC)” value was -0.03 in series [7] (setting [19]) and 0.11 in [7] (setting [20]).

With `CCCOC(=O)Nc1cccc(C(O)CN2CCN(c3ccccc3F)CC2)c1.Cl` (stereo not shown) [8c, 1-(2-Hydroxy-2-{3-[(propoxycarbonyl)amino]phenyl}ethyl)-4-(2-fluorophenyl)piperazin-1-ium chloride], the MIC is 62.5 µM in series [1] (ATCC12478, 168 h); 125 µM in [1] (setting [11]); 125 µM in series [1] (setting [12]); greater than 571 µM in series [2]; 32 µM in [3] (168 h, 7 d cultivation); 125 µM in series [3] (336 h, 14 d cultivation). The MIC in series [3] (504 h, 21 d cultivation) is 125 µM; in the series on M. kansasii CIT11/06, greater than 571 µM; in series [5] (setting [14]) it was 62.5 µM; in series [5] (setting [15]), 62.5 µM; in series [6] (setting [17]), 125 µM; in series [6] (setting [18]), 250 µM. In addition, the MIC in [8] and in series [9] was greater than 571 µM throughout. Further, in series [4], the “log ε2(Ch-T)” value was 4.37. In addition, the “log ε1” value in [4] worked out at 4.30. Further, in series [4], the “log ε3” value came to 3.42. Besides, the results for the “RM (RP-TLC)” value in series [7] (setting [19]) and in series [7] (setting [20]) were 0.42 and 0.44, respectively.

Take `CCCCOC(=O)Nc1cccc(C(O)CN2CCN(c3ccccc3F)CC2)c1.Cl` (stereo not shown) [8d, 1-(2-{3-[(Butoxycarbonyl)amino]phenyl}-2-hydroxyethyl)-4-(2-fluorophenyl)piperazin-1-ium chloride]: the MIC in series [1] (setting [10]) was 32 µM; in series [1] (setting [11]), 62.5 µM; in [1] (setting [12]) it was 62.5 µM; in series [2] it was greater than 553 µM; in series [3] (168 h, 7 d cultivation) it was 16 µM; in [3] (336 h, 14 d cultivation) it was 32 µM. The MIC was 62.5 µM in series [3] (504 h, 21 d cultivation); greater than 553 µM in the series with M. kansasii CIT11/06; 32 µM in series [5] (setting [13]); 32 µM in series [5] (setting [14]); 32 µM in series [5] (setting [15]); 62.5 µM in [6] (setting [16]). In addition, the MIC in series [6] (setting [17]) was 62.5 µM; in series [6] (setting [18]), 62.5 µM; in series [8], greater than 53 µM; in series [9] it was greater than 553 µM. For the same compound, the “log ε2(Ch-T)” value in series [4] is recorded as 4.32. For the same compound, the “log ε1” value in [4] was 4.31. The “log ε3” value in series [4] is reported as 3.49. The “RM, lipophilicity index (RP-TLC)” value in [7] is given as 0.01. The “RM (RP-TLC)” value in series [7] (setting [20]) is 0.64.

Consider `COC(=O)Nc1ccc(C(O)CN2CCN(c3ccccc3F)CC2)cc1.Cl` (stereo not shown) [8e, 1-(2-Hydroxy-2-{4-[(methoxycarbonyl)amino]phenyl}ethyl)-4-(2-fluorophenyl)piperazin-1-ium chloride], for which the MIC in [1] (setting [10]) is 125 µM; in [1] (setting [11]), 500 µM; in [1] (setting [12]), 500 µM; in series [2], greater than 610 µM; in series [3] (168 h, 7 d cultivation), 125 µM; in series [3] (336 h, 14 d cultivation), 500 µM. Moreover, the MIC in series [3] (504 h, 21 d cultivation) is 500 µM; in the series on M. kansasii CIT11/06, greater than 610 µM; in [5] (setting [13]), 125 µM; in series [5] (setting [14]) it was 125 µM; in series [5] (setting [15]) it was 125 µM; in [6] (setting [17]), 250 µM. Also, the MIC in series [6] (setting [18]) was 500 µM; in series [8], greater than 610 µM; in series [9], greater than 610 µM. In series [4], the “log ε2(Ch-T)” value is given as 4.67. In addition, the “log ε1” value in series [4] came out at 4.61. For the same compound, the “log ε3” value in [4] is 3.67. Further, the “RM (RP-TLC)” value in series [7] (setting [19]) was 0.19; in series [7] (setting [20]), 0.25.
